Experiments:
Toll-like receptor 7 = molecular target: T1, Toll-like receptor 7 (Mus musculus, UniProt P58681); experiment: Antagonist activity at gardiquimod stimulated TRL7 in mouse whole blood assessed as inhibition of IL-6 production by ELISA analysis; format: tissue-based
T1 sequence (P58681 whole entry): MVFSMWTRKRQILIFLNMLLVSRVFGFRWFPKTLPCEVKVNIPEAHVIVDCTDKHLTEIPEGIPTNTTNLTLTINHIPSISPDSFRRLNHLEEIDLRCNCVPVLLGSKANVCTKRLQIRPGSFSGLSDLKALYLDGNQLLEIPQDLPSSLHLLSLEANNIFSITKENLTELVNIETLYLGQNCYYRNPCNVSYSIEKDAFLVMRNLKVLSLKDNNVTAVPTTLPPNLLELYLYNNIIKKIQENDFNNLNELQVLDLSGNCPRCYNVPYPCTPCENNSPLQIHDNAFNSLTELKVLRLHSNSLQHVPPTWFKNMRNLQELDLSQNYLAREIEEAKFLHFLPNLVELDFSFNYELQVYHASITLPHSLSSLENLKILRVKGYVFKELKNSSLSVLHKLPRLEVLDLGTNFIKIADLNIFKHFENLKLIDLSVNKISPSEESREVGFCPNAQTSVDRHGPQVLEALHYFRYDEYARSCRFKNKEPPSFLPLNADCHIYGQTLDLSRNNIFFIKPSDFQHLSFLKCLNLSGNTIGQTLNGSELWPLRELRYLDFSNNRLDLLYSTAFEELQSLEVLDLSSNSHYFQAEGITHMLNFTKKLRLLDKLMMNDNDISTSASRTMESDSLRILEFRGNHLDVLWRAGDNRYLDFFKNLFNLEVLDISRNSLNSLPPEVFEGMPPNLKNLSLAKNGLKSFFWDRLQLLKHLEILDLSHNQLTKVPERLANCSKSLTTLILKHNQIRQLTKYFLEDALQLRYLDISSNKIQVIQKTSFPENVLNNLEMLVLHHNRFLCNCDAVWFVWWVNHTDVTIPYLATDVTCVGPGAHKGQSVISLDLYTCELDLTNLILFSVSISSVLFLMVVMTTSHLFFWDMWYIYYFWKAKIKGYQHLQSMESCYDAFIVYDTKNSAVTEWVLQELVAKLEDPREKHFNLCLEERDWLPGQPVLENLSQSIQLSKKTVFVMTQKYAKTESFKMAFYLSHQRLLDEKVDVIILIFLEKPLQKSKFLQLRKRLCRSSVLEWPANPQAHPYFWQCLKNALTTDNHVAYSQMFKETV

Toll-like receptor 8 = molecular target: T2, Toll-like receptor 8 (Homo sapiens, UniProt Q9NR97)
T2 sequence (Q9NR97 whole entry): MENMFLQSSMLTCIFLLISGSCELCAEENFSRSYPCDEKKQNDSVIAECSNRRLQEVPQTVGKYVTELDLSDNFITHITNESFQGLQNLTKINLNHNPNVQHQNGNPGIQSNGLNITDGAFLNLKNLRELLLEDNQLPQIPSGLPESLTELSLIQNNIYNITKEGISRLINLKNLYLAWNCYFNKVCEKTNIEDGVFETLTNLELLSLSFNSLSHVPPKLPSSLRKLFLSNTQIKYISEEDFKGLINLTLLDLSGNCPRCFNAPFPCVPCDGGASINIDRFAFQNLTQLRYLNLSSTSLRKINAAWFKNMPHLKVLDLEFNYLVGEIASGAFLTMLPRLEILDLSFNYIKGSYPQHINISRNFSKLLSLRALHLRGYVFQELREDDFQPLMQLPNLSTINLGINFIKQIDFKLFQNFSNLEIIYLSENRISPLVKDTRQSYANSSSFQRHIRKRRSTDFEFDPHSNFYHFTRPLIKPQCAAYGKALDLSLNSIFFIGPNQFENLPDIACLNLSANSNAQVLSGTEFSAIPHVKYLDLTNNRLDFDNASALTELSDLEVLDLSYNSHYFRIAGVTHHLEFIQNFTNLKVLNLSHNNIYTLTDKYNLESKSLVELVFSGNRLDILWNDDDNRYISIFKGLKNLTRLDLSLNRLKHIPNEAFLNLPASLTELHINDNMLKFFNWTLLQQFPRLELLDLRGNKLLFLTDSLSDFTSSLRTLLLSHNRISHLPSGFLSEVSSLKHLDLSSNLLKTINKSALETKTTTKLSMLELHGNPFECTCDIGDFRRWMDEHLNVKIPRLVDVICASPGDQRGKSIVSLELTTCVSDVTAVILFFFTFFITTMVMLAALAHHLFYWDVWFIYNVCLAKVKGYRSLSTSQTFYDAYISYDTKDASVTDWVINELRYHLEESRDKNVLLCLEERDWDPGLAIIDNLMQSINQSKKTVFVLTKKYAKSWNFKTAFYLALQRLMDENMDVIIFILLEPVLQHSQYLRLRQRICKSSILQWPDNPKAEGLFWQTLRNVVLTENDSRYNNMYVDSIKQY

[1] = Plasma protein binding in human assessed as free fraction; format: ADME, cell-free
[2] = Half life in mouse blood at 5 mg/kg, iv; format: ADME, organism-based
Mus musculus [3] = experiment: Anti-inflammatory activity against MRL/Ipr Systemic lupus erythematosus mouse model assessed as inhibition of anti-Sm/RNP Ab titer at 0.1 mg/kg, po administered for 8 weeks and measured 24 hrs post final dose relative to control; format: functional; parameters: scale not given: the % may be the effect or the level left; conditions: time 1368 hrs
[4] = In vivo antagonist activity at TRL9 in C57BL/6 mouse assessed as inhibition of ODN1585 stimulated IL-6 production at 1 mg/kg,po for 30 minutes and followed by ODN1585 addition measured after 90 mins by ELISA analysis relative to control; format: functional; parameters: scale not given: the % may be the effect or the level left; conditions: time 120 min, 2 h
[5] = Toxicity in MRL/Ipr Systemic lupus erythematosus mouse model assessed as change in body weight at 0.1 to 20 mg/kg, po administered for 8 weeks and measured 24 hrs post final dose; format: organism-based; conditions: in vivo, 1368 h, dose 0.1-20 mg/kg
[6] = In vivo antagonist activity at TRL7 in C57BL/6 mouse assessed as inhibition of gardiquimod stimulated IL-6 production at 0.05 mg/kg,po for 30 minutes and followed by gardiquimod addition measured after 90 mins by ELISA analysis relative to control; format: functional; parameters: scale not given: the % may be the effect or the level left; conditions: time 120 min, 2 h
[7] = In vivo antagonist activity at TRL9 in C57BL/6 mouse assessed as inhibition of ODN1585 stimulated IL-6 production at 30 mg/kg,po for 30 minutes and followed by ODN1585 addition measured after 90 mins by ELISA analysis relative to control; format: functional; parameters: scale not given: the % may be the effect or the level left; conditions: time 120 min, 2 h
Mus musculus [8] = experiment: Anti-inflammatory activity against MRL/Ipr Systemic lupus erythematosus mouse model assessed as inhibition of urinary NGAL at 20 mg/kg, po administered for 8 weeks and measured 24 hrs post final dose relative to control; format: functional; parameters: scale not given: the % may be the effect or the level left; conditions: time 1368 hrs
[9] = Plasma protein binding in rat assessed as free fraction; format: ADME, cell-free
[10] = Plasma protein binding in mouse assessed as free fraction; format: ADME, cell-free

IC50 (Toll-like receptor 7): 0.3 nM
IC50 (Toll-like receptor 8): 4.2 nM
fraction unbound [1]: 0.09
half-life [2]: 9 h
fraction unbound [9]: 0.11
fraction unbound [10]: 0.05
Structure (SMILES): Cc1cc(-c2[nH]c3ccc(C4CCNCC4)cc3c2C(C)C)cc(C)n1
Activity (Mus musculus [3]): 27%
Activity [4]: 16%
Activity [5]: Non-Toxic
Activity [6]: 66%
Activity [7]: 38%
Activity (Mus musculus [8]): 81%

From ChEMBL document CHEMBL5131534, “Identification of 2-Pyridinylindole-Based Dual Antagonists of Toll-like Receptors 7 and 8 (TLR7/8)” (ACS Med Chem Lett, 2022)
